Results on one molecule are retold here after patent publication US9248202B2, “Two-photon probe for detecting copper(II) ion and quantitative estimation of copper(II) ion in human tissue using the same” (Korea University Research and Business Foundation, priority 2014, dated 2016).

Data set [1] in a line: Selectivity of ACCu2 for copper(II) ion against competing metal ions. To be noted: ACCu2 3 μM; Na+, K+, Ca2+, Mg2+ 1 mM; transition metal ions 500 μM; then 200 μM Cu2+; EtOH/HEPES (9/1, pH 7.0). The protocol: The black bars show the result obtained in the presence of alkali metal and alkaline earth metal ions Na^+, K^+, Ca^2+ and Mg^2+ (1 mM) and transition metal ions Mn^2+, Fe^2+, Co^2+, Ni^2+, Zn^2+, Pd^2+, Cd^2+ and […] in EtOH/HEPES (9/1 v/v, pH 7.0), and the white bars show the result obtained after further addition of 200 μM Cu^2+.

Data set [2] has as its system HeLa cells. Briefly: Photostability in labeled HeLa cells. To be noted: ACCu2-labeled HeLa cells, fs-pulses for 60 minutes. It counts as cell-based, human. Further details: dose or concentration left out as unconfirmed. As to the method: The photostability of ACCu2 was determined by monitoring the change in TP excited fluorescence (TPEF) intensity from ACCu2 ([…])-labeled HeLa cells. […] This confirms that ACCu2 according to the present disclosure has high photostability and can measure the copper(II) ion concentration in living cells with minimum interference.

The next data set deals with rat brain tissue. In words: Quantitative estimation of copper(II) ion in rat brain tissue slices by TPM. The protocol: Slices were prepared from the hippocampi and hypothalami of 2-day-old Sprague-Dawley (SD) rats. Coronal slices were cut into 400 μm thickness using a vibrating-blade microtome in artificial cerebrospinal fluid (ACSF; 138.6 mM NaCl, 3.5 mM KCl, 21 mM NaHCO3, 0.6 mM NaH2PO4, 9.9 mM D-glucose, 1 mM CaCl2 and 3 mM MgCl2). The slices were incubated with 20 μM ACCu2 in ACSF bubbled with 95% O2 and 5% CO2 for 30 minutes at 37° C. The slices were e then washed 3 times with ACSF, transferred to glass-bottomed dishes (MatTek) and observed with spectral confocal and rnultiphoton microscopy.
Because the structure of the brain tissue is heterogeneous, TPM images were acquired at depths of 90-190 μm to visualize the overall copper(II) on distribution.

Data set [3] in a line: Two-photon action cross section. In kind it is physicochemical. To be noted: at 880 nm, EtOH/HEPES (9/1 v/v, pH 7.0). The protocol:
Referring to FIG. 4(a), the Φδmax value of ACCu2 in EtOH/HEPES (9/1 v/v, pH 7.0) buffer was 32 GM at 880 nm, while those for FL and IR were 32 GM at 880 nm and 46 GM at 750 nm. The lower Φδmax value of ACCu2 at 750 nm than that of IR is because of decreased fluorescence resonance energy transfer (FRET) from IR to FL and it allows to obtain bright TPM images of cells and ^.tissues labeled with ACCu2.
The two-photon cross section (δ) was determined by the fe tosecond (fs) fluorescence measurement technique described in the literature (S. K. Lee, W. J. Yang, J. J. Choi, C. H. Kim, S.-J. Jeon, B. R. Cho, Org. Lett 2005, 7, 323-326.), ACCu2 was dissolved in 20 mM HEPES buffer (pH 7.0) to a concentration of 3.0×10^−6 M and then two-photon induced fluorescence intensity was measured at 740-940 nm using rhodamine 6G as a reference, whose two-photon property has been well characterized. The intensities of two-photon induced fluorescence of the reference and the sample were determined at the same excitation wavelength.
The two-photon cross section can be calculated from equation (3). δ=δr(SsΦrΦrcr)/(SrΦsΦscs) Equation (3)
wherein s and r stand for the sample, i.e., ACCu2, and the reference, respectively. S denotes the intensity of the signal collected using a CCD detector, Φ is the fluorescence quantum yield, Φ is the overall fluorescence collection efficiency of the experimental apparatus, c is the number density of molecules in solution, and δr is the two-photon cross section of the reference molecule.

Data set [4] has as its system HeLa cells. In words: Two-photon microscopy of ACCu2-labeled HeLa cells, copper(II) ion estimation. In kind it is cell-based, human. To be noted: for free copper(II) ion concentration: from Ired/Iblue ratio and titration curve. The source says:
The two curves were similar to the TPEF spectra of HeLa cells labeled with FL and IR. And, the OP-excited fluorescence (OPEF) spectra of FL and IR measured in EtOH/HEPES (9/1 v/v, pH=7.0) (see Table 1 and FIG. 1) confirmed that this solvent is a good model of the intracellular environment.
In order to investigate the utility of ACCu2 in living cells, TPM images of ACCu2-labeled HeLa cells and tissues were obtained using spectral confocal and multiphoton microscopes (Leica TCS SP2) with ×100 (NA=1.30 OIL) and ×40 (NA=0.75 DRY) objective lenses.
The TPM images were obtained with the DM IRE2 microscope (Leica) by exciting the probes with a mode-locked titanium-sapphire laser source (Coherent Chameleon, 90 MHz, 200 fs) set at a wavelength of 780 nm and an output power of 1305 mW. To obtain images at 400-650 nm, internal PMTs were used to collect signals in 8-bit unsigned 512×512 pixels at a scan rate of 400 Hz.
HeLa human cervical carcinoma cells were acquired from the ATCC (Manassas, Va., USA). The cells were cultured in DMEM (WelGene, Inc., Seoul, Korea) supplemented with heat-inactivated 10% FBS (WelGene), penicillin (100 units/mL) and streptomycin ([…]), All the cell lines were maintained in a humidified atmosphere of 5% CO2 and 95% air at 37° C. Two days before imaging, the cells were moved and plated onto glass-bottomed dishes (MatTek), For labeling, the growth medium was removed and replaced with FBS-free DMEM. The cells were incubated with 3 μM ACCu2 for 20 minutes at 37° C., washed 3 times with FBS-free DMEM and imaged.
Ratiometric images were constructed from the TPEF intensities collected in the two channels (FIG. 9(a)-(c)). The Ired/Iblue ratio for the ACCu2-labeled HeLa cells was measured as 9.9±0.8 (FIG. 9(d)). The ratio decreased to 6.5 upon addition of copper(II) ion (200 μM) and pyrrolidine dithiocarbamate (PDTC, 100 μM) due to accumulation of copper(II) ion inside the cells, and increased to 9.8 upon treatment with ethylenediaminetetraacetic acid (EDTA, 100 μM), a […] metal on chelator that effectively removes copper(II) ion.
Since Iblue remains constant, ACCu2 according to the present disclosure can measure the Ired/Iblue ratio more accurately than the existing probe which requires the measurements of the changes in both Ired and Iblue. The free copper(II) ion concentration was calculated as 0.0±0.7 μM (FIG. 9(a)), 15±2 μM (FIG. 9(b)) and 0.0±1.9 μM (FIG. 9(c)) from the Ired/Iblue ratio and the titration curve shown in FIG. 5(b).

The mark [5] stands for this setting: rat brain tissue, after copper(II) ion (500 μM) and PDTC (200 μM).
Where [6] appears, read: ACCu2-labeled HeLa cells, 750 nm TP excitation, scanning lambda mode.

Structures are written as SMILES.

Take `COCCOCCOCCOc1ccc2c(ccc3cc(C(=O)N4CCN(C(=O)c5ccc(CNC(=O)c6cc7cc8ccc(N(C)C)cc8cc7oc6=O)nc5)CC4)c(=O)oc32)c1` [ACCu2]: in data set [1], the “selectivity for Cu2+ in the presence of competing metal ions” value is reported as “uninterrupted in the presence of the alkali metal, alkaline earth metal or transition metal ions”. For the same molecule, in the data set with HeLa cells [2], the “photostability: TPEF intensity after continuous radiation” value was “remained nearly the same”. Besides, the Ired/Iblue ratio was 9.9±0.5 in the data set with rat brain tissue (ACCu2 (20 μM)-labeled rat brain tissue, untreated); 6.8±0.6 with rat brain tissue (setting [5]); 9.9±0.8 in the data set with HeLa cells [4] (ACCu2-labeled HeLa cells, before addition of copper(II) ion); 6.5 with HeLa cells [4] (HeLa cells, after copper(II) ion (200 μM) and PDTC (100 μM)); 9.8 in the data set with HeLa cells [4] (HeLa cells, after further treatment with EDTA (100 μM)). In addition, the “free copper ion concentration” value in the data set with rat brain tissue (setting [5]) is 14 ± 1.5 µM. The “free copper(II) ion concentration” value is 0.0 ± 1.1 µM in the data set with rat brain tissue (rat brain tissue, untreated); 0.0 ± 0.7 µM with HeLa cells [4] (HeLa cells, FIG. 9(a)); 15 ± 2 µM with HeLa cells [4] (HeLa cells, FIG. 9(b)); 0.0 ± 1.9 µM in the data set with HeLa cells [4] (HeLa cells, FIG. 9(c)). The “Φδmax (two-photon action cross section)” value in data set [3] was 32 GM. In the data set with HeLa cells [4] (setting [6]), the “TPEF emission maximum, first Gaussian function (solid curve)” value was 470 nm. In the data set on HeLa cells [4] (setting [6]), the “TPEF emission maximum, second Gaussian function (dotted curve)” value is reported as 582 nm.
